Here are results for eight molecules from ChEMBL document CHEMBL1149281, “Structure-activity relationship of 6-methylidene penems bearing tricyclic heterocycles as broad-spectrum beta-lactamase inhibitors: crystallographic structures show unexpected binding of 1,4-thiazepine intermediates” (J Med Chem, 2004).

Experiment [1] relates to Serratia marcescens. Put plainly: Antimicrobial activity against Serratia marcescens GC 1781 expressing Sme1 and AmpC in presence of 4 ug/mL piperacillin. It is filed as functional.
In a further experiment the test system is Staphylococcus aureus. The experiment can be described thus: Antimicrobial activity against Staphylococcus aureus GC 2216 in presence of 4 ug/mL piperacillin. It is filed as functional.
In experiment [2] the test system is Escherichia coli. Put plainly: Antimicrobial activity against Escherichia coli GC 2203 in presence of 4 ug/mL piperacillin. Type of experiment: functional.
Experiment [3] concerns Escherichia coli. The experiment can be described thus: Antimicrobial activity against Escherichia coli GC 2804 expressing Imp in presence of 4 ug/mL piperacillin. It is filed as functional.
In experiment [4] the test system is Enterobacter cloacae. Put plainly: Antimicrobial activity against Enterobacter cloacae GC 1477 expressing AmpC in presence of 4 ug/mL piperacillin. Type of experiment: functional.
Experiment [5] has as its system Escherichia coli. Put plainly: Antimicrobial activity against Escherichia coli GC 2844 in presence of 4 ug/mL piperacillin. It is filed as functional.
For experiment [6], the system named is Escherichia coli. The experiment can be described thus: Antimicrobial activity against Escherichia coli GC 2805 expressing CcrA in presence of 4 ug/mL piperacillin. Type of experiment: functional.
In experiment [7] the test system is Enterobacter cloacae. The experiment can be described thus: Antimicrobial activity against Enterobacter cloacae GC 1475 expressing P99 in presence of 4 ug/mL piperacillin. It is filed as functional.
Experiment [8] has as its system Escherichia coli. The experiment can be described thus: Antimicrobial activity against Escherichia coli GC 2847 expressing TEM1 in presence of 4 ug/mL piperacillin. Type of experiment: functional.
The subject of a further experiment is Pseudomonas aeruginosa. Put plainly: Antimicrobial activity against Pseudomonas aeruginosa GC 1764 expressing AmpC in presence of 4 ug/mL piperacillin. Type of experiment: functional.
Experiment [9] deals with Serratia marcescens. The experiment can be described thus: Antimicrobial activity against Serratia marcescens GC 4142 expressing AmpC in presence of 4 ug/mL piperacillin. Type of experiment: functional.
Experiment [10] has as its system Escherichia coli. Put plainly: Antimicrobial activity against Escherichia coli GC 2920 expressing IRT2 in presence of 4 ug/mL piperacillin. It is filed as functional.
The subject of experiment [11] is Enterobacter cloacae. Put plainly: Antimicrobial activity against Enterobacter cloacae GC 2071 expressing Imi1 and AmpC in presence of 4 ug/mL piperacillin. Type of experiment: functional.
Experiment [12] concerns Escherichia coli. The experiment can be described thus: Antimicrobial activity against Escherichia coli GC 2252 expressing IRT2 in presence of 4 ug/mL piperacillin. It is filed as functional.
The test system of another experiment is Klebsiella pneumoniae. Put plainly: Antimicrobial activity against Klebsiella pneumoniae GC 2825 in presence of 4 ug/mL piperacillin. It is filed as functional.
In another experiment the target is Beta-lactamase (Enterobacter cloacae, UniProt P05364).
Sequence of Beta-lactamase (P05364 whole entry): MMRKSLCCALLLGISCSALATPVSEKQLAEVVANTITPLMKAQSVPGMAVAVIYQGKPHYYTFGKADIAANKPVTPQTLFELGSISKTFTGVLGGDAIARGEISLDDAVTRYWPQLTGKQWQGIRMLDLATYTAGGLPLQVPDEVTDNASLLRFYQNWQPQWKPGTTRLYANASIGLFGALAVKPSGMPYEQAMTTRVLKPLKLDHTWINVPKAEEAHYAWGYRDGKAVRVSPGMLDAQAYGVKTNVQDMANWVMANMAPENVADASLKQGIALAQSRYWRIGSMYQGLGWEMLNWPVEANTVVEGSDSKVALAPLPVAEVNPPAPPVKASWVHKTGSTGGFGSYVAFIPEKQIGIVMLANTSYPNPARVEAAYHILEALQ
A further experiment addresses T1, Beta-lactamase SHV-1 (Escherichia coli, UniProt P0AD63).
T1 sequence (P0AD63 whole entry): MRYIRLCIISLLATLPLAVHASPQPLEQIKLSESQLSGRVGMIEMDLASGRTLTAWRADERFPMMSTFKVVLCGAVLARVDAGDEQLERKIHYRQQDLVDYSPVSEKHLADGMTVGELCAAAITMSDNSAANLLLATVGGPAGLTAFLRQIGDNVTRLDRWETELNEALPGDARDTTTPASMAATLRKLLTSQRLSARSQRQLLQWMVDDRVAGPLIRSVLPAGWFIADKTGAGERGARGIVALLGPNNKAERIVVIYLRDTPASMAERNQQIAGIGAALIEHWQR
The experiment can be described thus: Inhibition of Escherichia coli SHV1.

A short description of experiment [13]: Inhibition of Enterobacter cloacae class C beta lactamase GC1.
For a further experiment, the target named is Beta-lactamase TEM (Escherichia coli, UniProt P62593). Put plainly: Inhibition of Escherichia coli TEM1.
Sequence of Beta-lactamase TEM (P62593 whole entry): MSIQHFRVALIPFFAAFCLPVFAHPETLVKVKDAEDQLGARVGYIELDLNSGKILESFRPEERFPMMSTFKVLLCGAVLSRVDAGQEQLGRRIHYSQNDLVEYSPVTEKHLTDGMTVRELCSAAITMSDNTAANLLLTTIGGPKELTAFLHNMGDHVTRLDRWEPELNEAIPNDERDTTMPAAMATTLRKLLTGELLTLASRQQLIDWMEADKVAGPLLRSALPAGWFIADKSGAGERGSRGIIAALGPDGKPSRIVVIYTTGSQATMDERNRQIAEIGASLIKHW
Experiment [14] addresses Metallo-beta-lactamase type 2 (Bacteroides fragilis, UniProt P25910). The experiment can be described thus: Inhibition of Bacteroides fragilis CcrA.

Sequence of Metallo-beta-lactamase type 2 (P25910 whole entry): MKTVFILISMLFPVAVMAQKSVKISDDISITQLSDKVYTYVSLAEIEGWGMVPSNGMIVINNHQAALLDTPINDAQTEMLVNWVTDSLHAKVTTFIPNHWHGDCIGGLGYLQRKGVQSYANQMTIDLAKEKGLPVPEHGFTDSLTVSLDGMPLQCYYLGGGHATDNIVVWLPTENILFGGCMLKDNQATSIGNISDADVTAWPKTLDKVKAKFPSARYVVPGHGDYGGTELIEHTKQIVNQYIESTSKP

Regarding `C[C@]1(Cn2ccnn2)[C@H](C(=O)[O-])N2C(=O)C[C@H]2S1(=O)=O.[Na+]` [TAZOBACTAM SODIUM], the MIC (usually the lowest concentration that inhibits growth of the organism) in the experiment on Serratia marcescens [1] was 1 µg/mL; with Staphylococcus aureus, 64 µg/mL; with Escherichia coli [2] it was greater than 64 µg/mL; in the experiment on Escherichia coli [3] it was 0.12 µg/mL; in the experiment with Enterobacter cloacae [4], greater than 64 µg/mL; in the experiment on Escherichia coli [5], 2 µg/mL. In addition, the MIC in the experiment on Escherichia coli [6] is greater than 64 µg/mL; in the experiment with Enterobacter cloacae [7], greater than 64 µg/mL; in the experiment with Escherichia coli [8], 2 µg/mL; in the experiment with Pseudomonas aeruginosa, greater than 64 µg/mL; in the experiment on Serratia marcescens [9] it was greater than 64 µg/mL; in the experiment on Escherichia coli [10], 4 µg/mL. Further, the results for the MIC in the experiment with Enterobacter cloacae [11], in the experiment with Escherichia coli [12] and in the experiment with Klebsiella pneumoniae were greater than 64 µg/mL, 2 µg/mL and greater than 64 µg/mL, respectively.
Regarding `O=C([O-])C1=CS[C@@H]2/C(=C\c3cn4c(n3)sc3ccccc34)C(=O)N12.[Na+]`, the MIC with Serratia marcescens [1] was 0.5 µg/mL; in the experiment on Staphylococcus aureus, less than 0.06 µg/mL; in the experiment with Escherichia coli [2] it was 2 µg/mL; in the experiment with Escherichia coli [3], less than 0.06 µg/mL; with Enterobacter cloacae [4] it was 16 µg/mL; in the experiment on Escherichia coli [5], 2 µg/mL. In addition, the MIC with Escherichia coli [6] was greater than 64 µg/mL; with Enterobacter cloacae [7] it was 8 µg/mL; in the experiment with Escherichia coli [8], 2 µg/mL; in the experiment on Pseudomonas aeruginosa, 4 µg/mL; with Serratia marcescens [9], 1 µg/mL; in the experiment on Escherichia coli [10], 2 µg/mL. For the same molecule, the figures for the MIC in the experiment with Enterobacter cloacae [11], with Escherichia coli [12] and in the experiment with Klebsiella pneumoniae were 2 µg/mL, 8 µg/mL and 16 µg/mL, respectively. In addition, at Beta-lactamase, the midpoint of inhibition, the IC50, lay at 1 nM.
Regarding `O=C([O-])C1=CS[C@@H]2/C(=C\c3cn4c5c(sc4n3)CCC5)C(=O)N12.[Na+]`, the IC50 (usually the midpoint of a concentration-inhibition curve) at Beta-lactamase SHV-1 worked out at 12 nM; in experiment [13], 3.8 nM; on Beta-lactamase, 2 nM. Also, the MIC was 1 µg/mL in the experiment on Serratia marcescens [1]; 2 µg/mL in the experiment with Staphylococcus aureus; 2 µg/mL in the experiment with Escherichia coli [2]; less than 0.06 µg/mL in the experiment on Escherichia coli [3]; 16 µg/mL in the experiment on Enterobacter cloacae [4]; 2 µg/mL in the experiment with Escherichia coli [5]. The MIC is greater than 64 µg/mL with Escherichia coli [6]; 16 µg/mL in the experiment with Enterobacter cloacae [7]; 4 µg/mL in the experiment on Escherichia coli [8]; 2 µg/mL in the experiment with Pseudomonas aeruginosa; 2 µg/mL with Serratia marcescens [9]; 2 µg/mL in the experiment with Escherichia coli [10]. Further, the MIC worked out at 4 µg/mL in the experiment with Enterobacter cloacae [11], 8 µg/mL in the experiment on Escherichia coli [12] and 4 µg/mL with Klebsiella pneumoniae.
Regarding `Cc1ccc2c(c1)sc1nc(/C=C3/C(=O)N4C(C(=O)[O-])=CS[C@H]34)cn12.[Na+]`, the MIC in the experiment with Serratia marcescens [1] was 0.5 µg/mL; in the experiment with Staphylococcus aureus, less than 0.06 µg/mL; in the experiment on Escherichia coli [2] it was 1 µg/mL; with Escherichia coli [3] it was less than 0.06 µg/mL; with Enterobacter cloacae [4], 32 µg/mL; in the experiment on Escherichia coli [5], 2 µg/mL. In addition, the MIC with Escherichia coli [6] is greater than 64 µg/mL; with Enterobacter cloacae [7] it was 8 µg/mL; in the experiment with Escherichia coli [8] it was 4 µg/mL; in the experiment with Pseudomonas aeruginosa it was 16 µg/mL; with Serratia marcescens [9] it was 1 µg/mL; in the experiment with Escherichia coli [10] it was 2 µg/mL. For the same molecule, the MIC in the experiment with Enterobacter cloacae [11] was found to be 8 µg/mL; in the experiment on Escherichia coli [12] it was 16 µg/mL; in the experiment on Klebsiella pneumoniae, 8 µg/mL. Also, the IC50 on Beta-lactamase TEM came to 3 nM; in experiment [14], 103 nM; against Beta-lactamase, 1 nM.
As for `O=C([O-])C1=CS[C@@H]2/C(=C\c3cn4c(n3)sc3cc(F)ccc34)C(=O)N12.[Na+]`, the MIC in the experiment on Serratia marcescens [1] was 2 µg/mL; in the experiment with Staphylococcus aureus, less than 0.06 µg/mL; in the experiment on Escherichia coli [2], 2 µg/mL; with Escherichia coli [3], less than 0.06 µg/mL; with Enterobacter cloacae [4] it was 32 µg/mL; in the experiment with Escherichia coli [5], 2 µg/mL. For the same molecule, the MIC is greater than 64 µg/mL with Escherichia coli [6]; 16 µg/mL in the experiment on Enterobacter cloacae [7]; 8 µg/mL in the experiment with Escherichia coli [8]; 4 µg/mL in the experiment with Pseudomonas aeruginosa; 2 µg/mL in the experiment with Serratia marcescens [9]; 2 µg/mL in the experiment on Escherichia coli [10]. Further, the MIC in the experiment on Enterobacter cloacae [11] is 8 µg/mL; in the experiment on Escherichia coli [12], 16 µg/mL; in the experiment on Klebsiella pneumoniae, 16 µg/mL. The results for the IC50 at Beta-lactamase TEM and against Beta-lactamase were 8 nM and 2 nM, respectively.
For `Cc1cccc2sc3nc(/C=C4/C(=O)N5C(C(=O)[O-])=CS[C@H]45)cn3c12.[Na+]`, the MIC in the experiment on Serratia marcescens [1] is 4 µg/mL; in the experiment with Staphylococcus aureus it was less than 0.06 µg/mL; with Escherichia coli [2], 2 µg/mL; in the experiment on Escherichia coli [3], less than 0.06 µg/mL; in the experiment with Enterobacter cloacae [4] it was 32 µg/mL; with Escherichia coli [5] it was 2 µg/mL. In addition, the MIC in the experiment on Escherichia coli [6] was greater than 64 µg/mL; in the experiment on Enterobacter cloacae [7], 16 µg/mL; in the experiment with Escherichia coli [8] it was 8 µg/mL; in the experiment with Pseudomonas aeruginosa, 2 µg/mL; in the experiment on Serratia marcescens [9] it was 4 µg/mL; in the experiment with Escherichia coli [10], 2 µg/mL. The MIC in the experiment with Enterobacter cloacae [11], with Escherichia coli [12] and in the experiment with Klebsiella pneumoniae was 16 µg/mL in each case. For the same molecule, the IC50 on Beta-lactamase TEM was found to be 9 nM; in experiment [14], 370 nM; on Beta-lactamase, 2 nM.
As to `COc1ccc2c(c1)sc1nc(/C=C3/C(=O)N4C(C(=O)[O-])=CS[C@H]34)cn12.[Na+]`, the minimal inhibitory concentration (MIC) with Serratia marcescens [1] is 2 µg/mL; in the experiment on Staphylococcus aureus, less than 0.06 µg/mL; in the experiment with Escherichia coli [2], 1 µg/mL; in the experiment with Escherichia coli [3] it was less than 0.06 µg/mL; with Enterobacter cloacae [4], 64 µg/mL; in the experiment with Escherichia coli [5], 2 µg/mL. Also, the MIC was greater than 64 µg/mL in the experiment with Escherichia coli [6]; 16 µg/mL in the experiment on Enterobacter cloacae [7]; 16 µg/mL in the experiment with Escherichia coli [8]; 32 µg/mL in the experiment with Pseudomonas aeruginosa; 2 µg/mL with Serratia marcescens [9]; 2 µg/mL in the experiment with Escherichia coli [10]. Also, the MIC with Enterobacter cloacae [11] turned out to be 16 µg/mL; with Escherichia coli [12], 8 µg/mL; in the experiment on Klebsiella pneumoniae it was 64 µg/mL. In addition, the IC50 on Beta-lactamase came out at 2 nM.
For `O=C([O-])C1=CS[C@@H]2/C(=C\c3cn4c(n3)sc3cc(Cl)ccc34)C(=O)N12.[Na+]`, the MIC in the experiment on Serratia marcescens [1] is 1 µg/mL; with Staphylococcus aureus, less than 0.06 µg/mL; with Escherichia coli [2], 1 µg/mL; with Escherichia coli [3], less than 0.06 µg/mL; in the experiment on Enterobacter cloacae [4], 16 µg/mL; with Escherichia coli [5], 2 µg/mL. Further, the MIC was greater than 64 µg/mL in the experiment on Escherichia coli [6]; 8 µg/mL in the experiment with Enterobacter cloacae [7]; 4 µg/mL in the experiment with Escherichia coli [8]; 16 µg/mL in the experiment with Pseudomonas aeruginosa; 2 µg/mL in the experiment with Serratia marcescens [9]; 1 µg/mL with Escherichia coli [10]. Further, the MIC was 8 µg/mL with Enterobacter cloacae [11], 16 µg/mL in the experiment on Escherichia coli [12] and 32 µg/mL in the experiment on Klebsiella pneumoniae. Further, the values for the IC50 (against Beta-lactamase TEM; in experiment [14]; at Beta-lactamase) were 6 nM, 74 nM and 3 nM, respectively.
